Experimental data as given in ChEMBL document CHEMBL5500343, “Activity refinement of aryl amino acetamides that target the P. falciparum STAR-related lipid transfer 1 protein” (Eur J Med Chem, 2024).
Values after ≈ are worked out from the molar mass of the structure shown. Active and inactive are the calls of the source. No cut-off for these calls is given here.

How the values were obtained:
[1] = Apparent half life in Swiss mouse at 50 mg/kg,po administration measured for 4 to 24 hrs by LC-MS/MS analysis; type: ADME, organism-based; settings: in vivo, time 4-24 hrs, read-out: t1/2(app) (converted)
Plasmodium falciparum [2] = assay: Antimalarial activity against asexual blood stage Plasmodium falciparum 3D7 assessed as reduction in parasite growth incubated for 72 hrs by LDH assay; type: functional, organism-based; settings: 3D7, 72 h
Plasmodium berghei = assay: Antimalarial activity against Plasmodium berghei ANKA infected in mouse assessed as reduction of parasitaemia at 50 mg/kg,po bid administrated for 72 hrs and measured after 24 hrs post last dose by Giemsa staining based microscopic analysis; type: functional, organism-based; settings: time 96.0 hrs
[3] = Intrinsic clearance in rat hepatocyte measured per 10^6 cells at 1 uM incubated upto 90 mins by LC-MS/MS analysis; type: ADME, cell-based; settings: rat hepatocytes, read-out: CLH
[4] = Kinetic aqueous solubility of the compound in PBS at pH 7.4 incubated for 2 hr under shaking condition by shake flask based UV reader plate analysis; type: physicochemical; settings: read-out: Kinetic_solubility
[5] = Toxicity in Swiss mouse at 50 mg/kg,po administration measured upto 24 hrs by LC-MS/MS analysis; type: organism-based; settings: in vivo
[6] = Toxicity in mouse infected with Plasmodium berghei ANKA assessed as change in body weight at 50 mg/kg,po bid administrated for 72 hrs and measured after 24 hrs post last dose; type: organism-based; settings: in vivo
Plasmodium falciparum [7] = assay: Binding affinity to recombinant Plasmodium falciparum START1 assessed as change in entropy at 10 uM by isothermal titration calorimetry
[8] = Drug concentration in Swiss mouse plasma at 50 mg/kg,po administration measured after 12 hrs by LC-MS/MS analysis; type: ADME, organism-based; settings: in vivo
[9] = Binding affinity to recombinant Plasmodium falciparum START1 assessed as dissociation constant by isothermal titration calorimetry
HepG2 = assay: Cytotoxicity against human HepG2 cells assessed as reduction in cell viability incubated for 48 hrs by Cell Titer-Glo assay; type: functional, cell-based; settings: HepG2, 48 h
Plasmodium falciparum [10] = assay: Binding affinity to recombinant Plasmodium falciparum START1 assessed as change in enthalpy at 10 uM by isothermal titration calorimetry
[11] = Drug concentration in Swiss mouse plasma at 50 mg/kg,po administration measured after 15 mins by LC-MS/MS analysis; type: ADME, organism-based
[12] = Drug concentration in Swiss mouse plasma at 50 mg/kg,po administration measured upto 24 hrs by LC-MS/MS analysis; type: ADME, organism-based; settings: in vivo
[13] = Lipophilicity, LogD of compound in 1-Octanol and PBS at pH 7.4 at 7.5 uM incubated for 2 hrs shake flask method based LC-MS/MS analysis; type: physicochemical; settings: 1-octanol/PBS
[14] = Intrinsic clearance in human liver microsomes at 1 uM incubated upto 60 mins in presence of NADPH by LC-MS/MS analysis; type: ADME, Microsome; settings: read-out: CLH
Plasmodium falciparum [15] = assay: Antimalarial activity against Plasmodium falciparum Dd2 assessed as reduction in parasite growth incubated for 72 hrs by [3H]-hypoxanthine incorporation assay; type: functional, organism-based
Plasmodium falciparum [16] = assay: Antimalarial activity against DSM-265 resistant Plasmodium falciparum Dd2 harboring DHODH C276F mutant assessed as reduction in parasite growth incubated for 72 hrs by [3H]-hypoxanthine incorporation assay; type: functional, organism-based
Plasmodium falciparum [17] = assay: Antimalarial activity against asexual blood stage Plasmodium falciparum Dd2-F6 assessed as minimum inoculum of resistance at 5 times IC50 measured for 35 days by SYBR Green I dye based flow cytometry; type: functional; settings: time 35 day
Plasmodium falciparum [18] = assay: Antimalarial activity against ELQ-300 resistant Plasmodium falciparum Dd2 harboring Cyt b I22L mutant assessed as reduction in parasite growth incubated for 72 hrs by [3H]-hypoxanthine incorporation assay; type: functional, organism-based
Plasmodium falciparum [19] = assay: Antimalarial activity against MMV-048 resistant Plasmodium falciparum Dd2 harboring PI4K S743T mutant assessed as reduction in parasite growth incubated for 72 hrs by [3H]-hypoxanthine incorporation assay; type: functional, organism-based
Plasmodium falciparum [20] = assay: Antimalarial activity against asexual blood stage Plasmodium falciparum Dd2-B2 assessed as reduction in parasite growth measured for 60 days by flow cytometry; type: functional; settings: Dd2-B2, 1440 h, time 60 day
Plasmodium falciparum [21] = assay: Antimalarial activity against atovaquone resistant Plasmodium falciparum TM90-C2B assessed as reduction in parasite growth incubated for 72 hrs by [3H]-hypoxanthine incorporation assay; type: functional, organism-based
Plasmodium falciparum [22] = assay: Antimalarial activity against chloroquine and mefloquine resistant Plasmodium falciparum NF54 assessed as reduction in parasite growth incubated for 72 hrs by [3H]-hypoxanthine incorporation assay; type: functional, organism-based
Plasmodium falciparum [23] = assay: Antimalarial activity against asexual blood stage Plasmodium falciparum Dd2-B2 assessed as reduction in recrudescence measured for 60 days by flow cytometry; type: functional, organism-based; settings: time 60.0 day
Plasmodium falciparum [24] = assay: Antimalarial activity against chloroquine and mefloquine resistant Plasmodium falciparum RF12 assessed as reduction in parasite growth incubated for 72 hrs by [3H]-hypoxanthine incorporation assay; type: functional, organism-based
Plasmodium falciparum [25] = assay: Antimalarial activity against KAF-156 resistant Plasmodium falciparum Dd2 harboring CARL I1139K mutant assessed as reduction in parasite growth incubated for 72 hrs by [3H]-hypoxanthine incorporation assay; type: functional, organism-based
Plasmodium falciparum [26] = assay: Antimalarial activity against MMV006833 resistant Plasmodium falciparum 3D7 assessed as reduction in parasite growth incubated for 72 hrs by LDH assay; type: functional, organism-based; settings: 3D7, 72 h
Plasmodium falciparum [27] = assay: Antimalarial activity against asexual blood stage Plasmodium falciparum Dd2-F6 assessed as minimum inoculum of resistance at 2.2 times IC50 measured for 35 days by SYBR Green I dye based flow cytometry; type: functional; settings: time 35 day
Plasmodium falciparum [28] = assay: Antimalarial activity against chloroquine and mefloquine resistant Plasmodium falciparum 7G8 assessed as reduction in parasite growth incubated for 72 hrs by [3H]-hypoxanthine incorporation assay; type: functional, organism-based
Plasmodium falciparum [29] = assay: Antimalarial activity against MMV006833 resistant Plasmodium falciparum 3D7 harboring START1 N330K mutant assessed as reduction in parasite growth incubated for 72 hrs by LDH assay; type: functional, organism-based; settings: 3D7, 72 h
Plasmodium falciparum [30] = assay: Antimalarial activity against DDD-107498 resistant Plasmodium falciparum Dd2 harboring eEF2 Y86N mutant assessed as reduction in parasite growth incubated for 72 hrs by [3H]-hypoxanthine incorporation assay; type: functional, organism-based
Plasmodium falciparum [31] = assay: Antimalarial activity against MMV006833 resistant Plasmodium falciparum 3D7 harboring START1 N309K mutant assessed as reduction in parasite growth incubated for 72 hrs by LDH assay; type: functional, organism-based; settings: 3D7, 72 h
Plasmodium falciparum [32] = assay: Antimalarial activity against chloroquine and mefloquine resistant Plasmodium falciparum K1 assessed as reduction in parasite growth incubated for 72 hrs by [3H]-hypoxanthine incorporation assay; type: functional, organism-based

CC(C)(Nc1ccc(Cl)c(S(=O)(=O)N2CCOCC2)c1)C(=O)Nc1cncc(Cl)c1
half-life [1]: 5.9 h
EC50 (Plasmodium falciparum [2]): 15 nM
Activity (Plasmodium berghei): inactive
hepatocyte CLint at 1 µM [3]: 68 µL/min/1e6 cells
solubility kinetic at 2 h [4]: 60 µM (≈ 28.4 µg/mL)
Activity [5]: Non-Toxic
Activity [6]: Non-Toxic
-TdeltaS (Plasmodium falciparum [7]): 0.8 kcal/mol
Drug uptake [8]: Active
Kd [9]: 14 nM
EC50 (HepG2): > 40000 nM
deltaH (Plasmodium falciparum [10]): -11.6 kcal/mol
concentration at 0.25 h [11]: ~1200 nM
Drug uptake [12]: Active
logD at 2 h, 7.5 µM [13]: 3.2
microsomal CLint at 1 µM [14]: > 462 µL/min/mg

Cc1cc(Nc2ccc(S(F)(F)(F)(F)F)cc2)n2nc(C(C)(F)F)nc2n1 [DSM-265]
EC50 (Plasmodium falciparum [15]): 24 nM
EC50 (Plasmodium falciparum [16]): 470 nM
Activity (Plasmodium falciparum [17]): 1.6 10^6No_unit

CC(C)(Nc1ccc(Cl)c(S(=O)(=O)N2CCOCC2)c1)C(=O)Nc1ccc(F)c(Cl)c1
EC50 (Plasmodium falciparum [18]): 1 nM
EC50 (Plasmodium falciparum [2]): 5 nM
EC50 (Plasmodium falciparum [15]): 1 nM
EC50 (Plasmodium falciparum [19]): 1 nM
EC90 (Plasmodium falciparum [20]): 9.7 nM
EC50 (Plasmodium falciparum [21]): 1 nM
hepatocyte CLint at 1 µM [3]: > 92 µL/min/1e6 cells
solubility kinetic at 2 h [4]: 16 µM (≈ 7.85 µg/mL)
EC50 (Plasmodium falciparum [22]): 2 nM
Activity (Plasmodium falciparum [23]): inactive
EC50 (Plasmodium falciparum [24]): 1 nM
EC50 (Plasmodium falciparum [16]): 1 nM
Kd [9]: 10 nM
EC50 (Plasmodium falciparum [25]): 1 nM
EC50 (HepG2): 31500 nM
EC50 (Plasmodium falciparum [26]): 4 nM
Activity (Plasmodium falciparum [27]): 1.9 10^7No_unit
EC50 (Plasmodium falciparum [28]): 1 nM
EC50 (Plasmodium falciparum [29]): 2200 nM
logD at 2 h, 7.5 µM [13]: 3.9
EC50 (Plasmodium falciparum [30]): 1 nM
EC50 (Plasmodium falciparum [31]): 3200 nM
microsomal CLint at 1 µM [14]: > 462 µL/min/mg
EC50 (Plasmodium falciparum [32]): 2 nM
